Patent publication US8415469B2, “Compounds and methods for kinase modulation, and indications therefor” (Plexxikon Inc., priority 2005, dated 2013)

Key:
Format in all cases: biochemical
[1] = molecular target: T1, Kdr (Homo sapiens, UniProt P35968); experiment: Z'-Lyte FRET kinase assay (Invitrogen), Kdr; conditions: read-out: IC50, activity toward kinase Kdr
T1 construct: purchased Invitrogen (assay run by Invitrogen)

[2] = molecular target: T2, PKC theta (Homo sapiens, UniProt Q04759); experiment: Z'-Lyte FRET kinase assay (Invitrogen), PKC theta; conditions: read-out: IC50, activity toward kinase PKC theta
T2 construct: purchased Invitrogen (Carlsbad, Calif.), screening service
Text: The effect of potential modulators of kinase activity can be measured in a variety of different assays known in the art. For example, direct radiometric, indirect FRET or AlphaScreen assays may be used to assess the level of phosphorylation of a substrate in the presence of test compounds in order to determine the inhibitory affect of the compound on the kinase. Invitrogen (Carlsbad, Calif.) uses a FRET based assay for Btk, EGFR, EphB2, Flt3, lrak4, Kdr, MAP2K1, MAPKAPK2, PDGFRB, PKC theta, Stk6 and Yes. For these assays, compounds of the invention were screened by Invitrogen using Z′-Lyte™ kinase assay.
Briefly, the Invitrogen kinase assay involves use of a specific peptide substrate optimized for each kinase, containing a fluorophore at each end that make up the FRET pair. The peptide sensitivity to proteolytic cleavage depends on phosphorylation of the peptide. Non-phosphorylated peptide is cleaved by a protease while peptide phosphorylated by the kinase is not cleaved. Cleavage of the peptide disrupts the FRET between the donor (coumarin) and acceptor (fluorescein) fluorophores, resulting in an increase in the ratio of donor emission to acceptor emission. The emission ratio of coumarin to fluorescein is used to assess the reaction progress. The extent of phosphorylation is determined from the emission ratio, which is low when the kinase is active (phosphorylated peptide is not cleaved, FRET pair connected) or higher for inhibited kinase (non-phosphorylated peptide is cleaved, FRET pair separated). Thus, the assay involves a kinase reaction in the presence of varying concentrations of a given compound, a development reaction with site specific protease, and detection of the fluorescent emission ratio of coumarin and fluorscein. […] Reaction conditions for each kinase are determined to provide optimal reaction times, incubation temperature, kinase and ATP concentrations. Test samples are made up in 1× kinase buffer (50 mM HEPES pH 7.5, 50 mM MgCl2, 5 mM EGTA, 0.05% BRIJ-35) and compound at desired concentration prepared in DMSO such that the final DMSO is 1%. […] Typically, assay plates are prepared to 10 μl final volume per sample, adding 2.5 μl of compound at 4× the desired concentration in 4% DMSO (serial dilution of compound provides concentration curve), 5 μl of the desired kinase mixed with Z′-LYTE™ peptide substrate (2× in 2× kinase buffer, final peptide at 2 μM), and 2.5 μl of 4×ATP solution. All kinase except for MAP2K1 were at 10 μM ATP in the kinase reaction, while MAP2K1 was at 100 μM. Samples are mixed and the kinase reaction is incubated 1 hour at room temperature, after which 5 μl of development solution is added and mixed. After incubation for another 1 hour at room temperature, 5 μl of stop reagent is added to each sample and mixed. The fluorescence signals are measured to determine the emission ratio.

[3] = molecular target: Akt3 (Homo sapiens, UniProt Q9Y243); experiment: AlphaScreen kinase assay, Akt3; conditions: read-out: IC50, activity toward kinase Akt3
Procedure, shortened: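 Emission from acceptor beads reports phosphorylated biotin-peptide bridging antibody-coated acceptor and streptavidin donor beads; loss of signal reflects kinase inhibition. Eight-point, threefold dilution series prepared from 20 mM DMSO stocks.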

[4] = molecular target: T3, IKK beta (Homo sapiens, UniProt O14920); experiment: AlphaScreen kinase assay, IKK beta; conditions: read-out: IC50, activity toward kinase IKK beta
T3 sequence (O14920 1-756): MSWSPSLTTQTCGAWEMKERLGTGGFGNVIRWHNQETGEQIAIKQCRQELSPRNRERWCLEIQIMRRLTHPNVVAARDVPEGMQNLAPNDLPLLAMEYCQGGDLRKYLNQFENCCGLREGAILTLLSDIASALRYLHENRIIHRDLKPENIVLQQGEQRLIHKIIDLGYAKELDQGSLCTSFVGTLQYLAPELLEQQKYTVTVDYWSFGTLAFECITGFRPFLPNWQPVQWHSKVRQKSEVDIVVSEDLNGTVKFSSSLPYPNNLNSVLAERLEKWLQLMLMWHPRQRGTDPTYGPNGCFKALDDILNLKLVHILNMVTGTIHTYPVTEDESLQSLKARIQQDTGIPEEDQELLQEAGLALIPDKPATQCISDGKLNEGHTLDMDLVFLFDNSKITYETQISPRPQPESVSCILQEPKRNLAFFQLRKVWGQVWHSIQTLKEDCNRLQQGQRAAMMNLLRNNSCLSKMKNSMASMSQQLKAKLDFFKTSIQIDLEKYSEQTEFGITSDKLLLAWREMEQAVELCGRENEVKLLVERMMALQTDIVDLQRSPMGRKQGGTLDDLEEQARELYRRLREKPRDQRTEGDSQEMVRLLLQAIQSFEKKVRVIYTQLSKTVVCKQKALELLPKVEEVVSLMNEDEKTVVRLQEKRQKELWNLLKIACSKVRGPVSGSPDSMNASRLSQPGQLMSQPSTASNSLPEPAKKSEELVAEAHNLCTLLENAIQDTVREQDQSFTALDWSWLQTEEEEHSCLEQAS

[5] = molecular target: T4, Stk6 (Homo sapiens, UniProt O14965); experiment: Z'-Lyte FRET kinase assay (Invitrogen), Stk6; conditions: read-out: IC50, activity toward kinase Stk6
T4 construct: purchased Invitrogen (Carlsbad, Calif.), screening service
T4 sequence (O14965 1-403): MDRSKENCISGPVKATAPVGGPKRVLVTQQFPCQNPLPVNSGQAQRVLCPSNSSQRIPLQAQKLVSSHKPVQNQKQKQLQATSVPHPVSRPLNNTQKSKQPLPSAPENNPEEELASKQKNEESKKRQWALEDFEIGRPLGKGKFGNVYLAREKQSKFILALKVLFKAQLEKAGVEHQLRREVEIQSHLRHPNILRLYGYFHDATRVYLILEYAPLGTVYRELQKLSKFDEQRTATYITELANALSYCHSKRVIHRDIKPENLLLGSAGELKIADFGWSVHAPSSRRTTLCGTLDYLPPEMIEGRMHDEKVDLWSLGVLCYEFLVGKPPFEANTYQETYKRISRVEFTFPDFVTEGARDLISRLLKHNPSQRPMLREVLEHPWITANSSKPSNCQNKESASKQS

[6] = molecular target: T5, Itk (Homo sapiens, UniProt Q08881); experiment: AlphaScreen kinase assay, Itk; conditions: read-out: IC50, activity toward kinase Itk
T5 sequence (Q08881 1-620): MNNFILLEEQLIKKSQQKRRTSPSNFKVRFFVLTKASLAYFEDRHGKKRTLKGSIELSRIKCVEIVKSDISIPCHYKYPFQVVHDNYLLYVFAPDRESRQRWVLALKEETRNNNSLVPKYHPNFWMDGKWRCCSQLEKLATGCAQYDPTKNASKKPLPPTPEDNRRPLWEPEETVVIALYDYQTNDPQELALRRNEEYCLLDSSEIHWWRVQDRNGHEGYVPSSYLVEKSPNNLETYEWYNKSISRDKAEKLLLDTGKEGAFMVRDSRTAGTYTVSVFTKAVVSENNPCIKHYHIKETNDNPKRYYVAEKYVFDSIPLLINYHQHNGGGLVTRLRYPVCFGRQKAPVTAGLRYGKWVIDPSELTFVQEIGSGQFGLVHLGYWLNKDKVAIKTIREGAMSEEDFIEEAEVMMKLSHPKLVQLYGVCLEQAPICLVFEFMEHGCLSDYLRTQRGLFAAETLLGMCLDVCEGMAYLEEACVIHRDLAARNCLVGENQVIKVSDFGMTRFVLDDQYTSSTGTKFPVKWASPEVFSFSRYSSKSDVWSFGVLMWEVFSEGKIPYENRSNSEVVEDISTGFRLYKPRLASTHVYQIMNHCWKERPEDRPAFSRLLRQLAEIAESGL
Text: AlphaScreen assay was used to screen additional kinases. The assay is similarly dependent on the phosphorylation of a peptide substrate. In this assay, an antibody that recognizes phosphorylated substrate is bound to an acceptor bead. The peptide substrate is attached to biotin, which binds to a donor head that contains streptavidin. Thus phosphorylated substrate is bound by antibody and streptavidin, bringing the donor and acceptor heads into close proximity when kinase is not inhibited. The donor produces singlet oxygen which results in emission from the acceptor when they are in close proximity. Conversely, when kinase is inhibited, the donor and acceptor beads are not associated and the emission from the acceptor is reduced.
AlphaScreen assays were done using compounds dissolved in DMSO to a concentration of 20 mM. The compounds were diluted accordingly to the desired final concentrations in each sample well, using 1:3 serial dilution for a total of 8 concentration points.

[7] = molecular target: T6, B-Raf (Homo sapiens, UniProt P15056); experiment: AlphaScreen kinase assay, B-Raf; conditions: read-out: IC50, activity toward kinase B-Raf
T6 construct: purchased Upstate Biotechnology

[8] = molecular target: T7, c-Raf-1 (Homo sapiens, UniProt P04049); experiment: AlphaScreen kinase assay, c-Raf-1; conditions: read-out: IC50, activity toward kinase c-Raf-1
T7 construct: purchased Upstate Biotechnology

[9] = molecular target: T8, Fms (Homo sapiens, UniProt P07333); experiment: AlphaScreen kinase assay, Fms; conditions: read-out: IC50, activity toward kinase Fms
T8 construct: purchased Upstate Biotechnology

[10] = molecular target: T9, Pyk2 (Homo sapiens, UniProt Q14289); experiment: AlphaScreen kinase assay, Pyk2; conditions: read-out: IC50, activity toward kinase Pyk2
T9 construct: purchased Upstate Biotechnology

[11] = molecular target: T10, B-Raf V600E (Homo sapiens, UniProt P15056, V600E); experiment: AlphaScreen kinase assay, B-Raf V600E; conditions: read-out: IC50, activity toward kinase B-Raf V600E
T10 construct: P4254. pFastBacBD-CDC37 BRAF D437-K722-X, V600E; His6 with pFastBac HT leader (TEV site) (N); made in house; host or cells: Sf9 (baculovirus; chaperone CDC37 co-expressed)

[12] = molecular target: T11, Fak (Homo sapiens, UniProt Q05397); experiment: AlphaScreen kinase assay, Fak; conditions: read-out: IC50, activity toward kinase Fak
T11 construct: P1358.pFastBacHtb FAK S411-Q686-X; His6 with pFastBacHTb leader (TEV site) (N); made in house; host or cells: Sf9 (baculovirus)

[13] = molecular target: T12, FGFR1 (Homo sapiens, UniProt P11362, C488A/C584S); experiment: AlphaScreen kinase assay, FGFR1; conditions: read-out: IC50, activity toward kinase FGFR
T12 construct: P1351.pET N6 BI-PTP FGFR A458-E765-X C488A, C584S; made in house; host or cells: E. coli (PTP1B co-expressed)

[14] = molecular target: T13, Jnk1 (Homo sapiens, UniProt P45983); experiment: AlphaScreen kinase assay, Jnk1; conditions: read-out: IC50, activity toward kinase Jnk1
T13 construct: purchased Upstate Biotechnology

[15] = molecular target: T14, Jnk3 (Homo sapiens, UniProt P53779); experiment: AlphaScreen kinase assay, Jnk3; conditions: read-out: IC50, activity toward kinase Jnk3
T14 construct: purchased Upstate Biotechnology

[16] = molecular target: T15, Kit (Homo sapiens, UniProt P10721); experiment: AlphaScreen kinase assay, Kit; conditions: read-out: IC50, activity toward kinase Kit
T15 construct: P1332.N6 BI PTP KIT M552-K948-X COD; His6 (N); made in house; host or cells: E. coli (PTP1B co-expressed)

[17] = molecular target: T16, Src (Homo sapiens, UniProt P12931); experiment: AlphaScreen kinase assay, Src; conditions: read-out: IC50, activity toward kinase Src
T16 construct: P1144. pET-N6 BI-PTP SRC V86-L536-X; made in house

T10 sequence (P15056 with tags, fused parts or gaps V600E): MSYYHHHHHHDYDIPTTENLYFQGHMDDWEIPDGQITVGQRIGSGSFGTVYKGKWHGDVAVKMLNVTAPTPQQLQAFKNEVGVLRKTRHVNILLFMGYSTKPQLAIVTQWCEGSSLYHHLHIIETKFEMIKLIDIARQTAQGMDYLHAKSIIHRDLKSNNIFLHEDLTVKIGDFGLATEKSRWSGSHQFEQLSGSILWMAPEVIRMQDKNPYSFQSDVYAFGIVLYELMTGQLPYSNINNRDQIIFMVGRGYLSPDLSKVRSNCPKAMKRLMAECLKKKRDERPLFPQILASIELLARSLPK
Akt3, sequence (Q9Y243 whole entry): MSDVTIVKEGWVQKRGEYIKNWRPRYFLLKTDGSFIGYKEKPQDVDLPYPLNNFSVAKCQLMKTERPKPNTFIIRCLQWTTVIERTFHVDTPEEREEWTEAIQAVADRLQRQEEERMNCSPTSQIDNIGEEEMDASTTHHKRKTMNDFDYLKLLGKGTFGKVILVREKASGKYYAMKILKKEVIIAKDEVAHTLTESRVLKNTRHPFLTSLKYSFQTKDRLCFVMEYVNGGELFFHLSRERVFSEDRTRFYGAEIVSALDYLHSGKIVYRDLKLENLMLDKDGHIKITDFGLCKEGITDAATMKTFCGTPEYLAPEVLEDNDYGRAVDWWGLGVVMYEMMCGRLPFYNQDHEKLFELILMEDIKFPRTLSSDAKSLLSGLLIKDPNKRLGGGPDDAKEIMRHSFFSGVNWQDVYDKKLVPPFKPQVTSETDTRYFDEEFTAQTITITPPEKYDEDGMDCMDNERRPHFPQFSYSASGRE
T1 sequence (P35968 20-1356): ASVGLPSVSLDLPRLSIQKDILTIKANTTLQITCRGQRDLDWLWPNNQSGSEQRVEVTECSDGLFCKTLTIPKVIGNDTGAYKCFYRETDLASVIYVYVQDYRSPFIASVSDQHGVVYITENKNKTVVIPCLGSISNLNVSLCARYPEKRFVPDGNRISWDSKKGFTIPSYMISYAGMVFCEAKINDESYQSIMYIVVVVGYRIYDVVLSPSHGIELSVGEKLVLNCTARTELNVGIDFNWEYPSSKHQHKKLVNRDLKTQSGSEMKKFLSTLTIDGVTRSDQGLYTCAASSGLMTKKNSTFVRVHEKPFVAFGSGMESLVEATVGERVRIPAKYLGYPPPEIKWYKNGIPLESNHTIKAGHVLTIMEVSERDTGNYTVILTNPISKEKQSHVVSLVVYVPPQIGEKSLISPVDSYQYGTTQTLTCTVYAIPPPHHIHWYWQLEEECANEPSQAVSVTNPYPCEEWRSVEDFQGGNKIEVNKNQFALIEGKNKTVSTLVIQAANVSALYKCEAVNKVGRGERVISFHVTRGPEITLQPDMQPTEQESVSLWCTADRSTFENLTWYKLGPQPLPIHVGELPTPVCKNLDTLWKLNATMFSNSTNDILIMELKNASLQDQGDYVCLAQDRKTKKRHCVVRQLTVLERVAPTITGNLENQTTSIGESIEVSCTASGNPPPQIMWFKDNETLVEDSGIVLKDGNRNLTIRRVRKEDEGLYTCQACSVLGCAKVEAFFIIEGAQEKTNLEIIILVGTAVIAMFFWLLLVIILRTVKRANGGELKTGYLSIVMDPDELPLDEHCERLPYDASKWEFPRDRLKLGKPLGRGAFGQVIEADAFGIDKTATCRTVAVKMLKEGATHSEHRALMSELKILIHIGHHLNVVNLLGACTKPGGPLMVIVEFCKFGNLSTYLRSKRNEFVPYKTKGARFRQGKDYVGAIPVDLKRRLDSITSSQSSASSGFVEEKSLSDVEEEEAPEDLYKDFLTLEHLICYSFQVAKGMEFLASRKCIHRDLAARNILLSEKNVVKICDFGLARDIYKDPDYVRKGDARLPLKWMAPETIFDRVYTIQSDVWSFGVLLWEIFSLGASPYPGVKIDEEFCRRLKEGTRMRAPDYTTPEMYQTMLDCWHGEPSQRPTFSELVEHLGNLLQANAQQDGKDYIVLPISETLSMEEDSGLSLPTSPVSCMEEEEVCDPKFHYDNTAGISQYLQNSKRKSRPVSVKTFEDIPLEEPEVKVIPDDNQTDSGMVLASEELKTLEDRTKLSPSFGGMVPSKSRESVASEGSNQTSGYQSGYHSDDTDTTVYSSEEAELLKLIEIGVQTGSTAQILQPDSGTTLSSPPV
T6 sequence (P15056 whole entry): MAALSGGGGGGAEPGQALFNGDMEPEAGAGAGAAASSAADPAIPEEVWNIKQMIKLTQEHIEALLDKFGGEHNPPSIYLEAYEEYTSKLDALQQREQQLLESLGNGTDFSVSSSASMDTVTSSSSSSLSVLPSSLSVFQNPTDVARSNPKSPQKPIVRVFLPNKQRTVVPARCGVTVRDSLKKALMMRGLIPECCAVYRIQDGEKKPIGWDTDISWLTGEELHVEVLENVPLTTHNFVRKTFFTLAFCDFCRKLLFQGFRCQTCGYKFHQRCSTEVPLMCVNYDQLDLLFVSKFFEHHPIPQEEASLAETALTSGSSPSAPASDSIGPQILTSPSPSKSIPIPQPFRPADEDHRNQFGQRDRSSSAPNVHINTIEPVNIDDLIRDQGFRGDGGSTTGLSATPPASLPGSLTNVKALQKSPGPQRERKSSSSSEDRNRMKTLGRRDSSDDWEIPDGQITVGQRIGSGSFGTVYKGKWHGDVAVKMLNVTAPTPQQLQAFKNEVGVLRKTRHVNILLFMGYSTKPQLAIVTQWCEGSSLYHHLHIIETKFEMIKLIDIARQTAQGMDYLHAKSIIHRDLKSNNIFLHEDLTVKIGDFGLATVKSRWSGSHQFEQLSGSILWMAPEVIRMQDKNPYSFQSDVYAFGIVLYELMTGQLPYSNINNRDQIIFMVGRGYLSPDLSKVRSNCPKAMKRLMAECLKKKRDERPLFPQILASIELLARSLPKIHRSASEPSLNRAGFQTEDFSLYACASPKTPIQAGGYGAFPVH
T8 sequence (P07333 20-972): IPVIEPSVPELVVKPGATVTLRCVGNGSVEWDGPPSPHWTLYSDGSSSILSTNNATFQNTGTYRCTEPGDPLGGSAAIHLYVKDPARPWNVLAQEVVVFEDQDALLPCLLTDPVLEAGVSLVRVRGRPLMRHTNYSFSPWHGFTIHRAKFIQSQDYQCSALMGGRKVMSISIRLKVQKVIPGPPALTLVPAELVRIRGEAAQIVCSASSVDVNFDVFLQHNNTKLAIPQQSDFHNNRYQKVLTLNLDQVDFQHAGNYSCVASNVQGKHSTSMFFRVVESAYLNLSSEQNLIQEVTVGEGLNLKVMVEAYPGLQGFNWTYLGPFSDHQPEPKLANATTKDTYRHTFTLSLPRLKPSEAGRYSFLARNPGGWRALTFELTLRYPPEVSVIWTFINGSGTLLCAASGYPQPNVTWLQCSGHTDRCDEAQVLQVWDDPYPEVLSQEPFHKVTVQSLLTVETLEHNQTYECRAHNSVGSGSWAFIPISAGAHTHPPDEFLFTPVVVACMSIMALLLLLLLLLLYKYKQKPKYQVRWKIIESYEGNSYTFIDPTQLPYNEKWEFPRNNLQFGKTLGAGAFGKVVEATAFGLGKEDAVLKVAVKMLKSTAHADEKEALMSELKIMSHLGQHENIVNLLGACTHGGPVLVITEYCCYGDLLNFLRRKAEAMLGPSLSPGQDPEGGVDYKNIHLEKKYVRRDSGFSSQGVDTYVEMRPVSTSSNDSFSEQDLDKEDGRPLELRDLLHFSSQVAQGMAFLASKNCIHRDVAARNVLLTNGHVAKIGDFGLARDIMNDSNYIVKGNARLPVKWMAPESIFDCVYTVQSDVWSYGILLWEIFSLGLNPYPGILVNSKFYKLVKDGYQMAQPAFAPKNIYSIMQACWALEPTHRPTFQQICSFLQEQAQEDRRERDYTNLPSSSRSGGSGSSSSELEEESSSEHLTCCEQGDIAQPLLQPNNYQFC
T15 sequence (P10721 with tags, fused parts or gaps): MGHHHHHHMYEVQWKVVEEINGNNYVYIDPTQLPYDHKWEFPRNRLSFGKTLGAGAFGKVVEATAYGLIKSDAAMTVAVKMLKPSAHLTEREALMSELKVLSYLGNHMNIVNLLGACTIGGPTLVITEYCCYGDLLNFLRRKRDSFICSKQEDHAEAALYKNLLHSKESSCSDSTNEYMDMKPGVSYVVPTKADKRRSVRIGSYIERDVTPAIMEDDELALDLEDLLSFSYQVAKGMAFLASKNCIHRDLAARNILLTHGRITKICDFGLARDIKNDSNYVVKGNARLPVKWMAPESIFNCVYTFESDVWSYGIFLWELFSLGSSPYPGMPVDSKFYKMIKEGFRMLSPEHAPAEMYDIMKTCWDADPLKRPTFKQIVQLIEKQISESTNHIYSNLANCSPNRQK
T14 sequence (P53779 whole entry): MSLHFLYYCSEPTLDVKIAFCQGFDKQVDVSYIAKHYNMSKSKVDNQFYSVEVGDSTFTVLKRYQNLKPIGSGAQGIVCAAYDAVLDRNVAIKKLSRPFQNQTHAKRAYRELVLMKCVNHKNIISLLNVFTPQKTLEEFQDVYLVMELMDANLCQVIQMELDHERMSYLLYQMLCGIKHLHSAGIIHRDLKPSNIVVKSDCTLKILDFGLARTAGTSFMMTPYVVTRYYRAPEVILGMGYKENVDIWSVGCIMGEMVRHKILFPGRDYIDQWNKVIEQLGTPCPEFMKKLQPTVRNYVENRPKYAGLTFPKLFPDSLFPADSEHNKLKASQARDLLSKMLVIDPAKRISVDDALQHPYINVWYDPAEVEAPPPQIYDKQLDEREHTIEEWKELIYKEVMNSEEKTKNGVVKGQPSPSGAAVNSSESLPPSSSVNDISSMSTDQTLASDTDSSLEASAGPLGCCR
T12 sequence (P11362 458-765 C488A/C584S): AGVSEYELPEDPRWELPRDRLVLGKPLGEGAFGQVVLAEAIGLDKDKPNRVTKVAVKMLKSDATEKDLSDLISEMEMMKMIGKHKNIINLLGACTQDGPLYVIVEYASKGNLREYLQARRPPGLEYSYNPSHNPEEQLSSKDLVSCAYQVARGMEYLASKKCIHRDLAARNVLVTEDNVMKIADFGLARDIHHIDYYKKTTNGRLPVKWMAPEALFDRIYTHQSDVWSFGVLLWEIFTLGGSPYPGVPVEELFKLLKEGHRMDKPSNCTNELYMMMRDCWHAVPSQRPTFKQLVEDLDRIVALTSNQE

Row | SMILES | IC50 [1] [µM] | IC50 [3] [µM] | IC50 [6] [µM] | IC50 [7] [µM] | IC50 [9] [µM] | IC50 [11] [µM] | IC50 [15] [µM] | IC50 [16] [µM] | also measured
1 | c1cc(-c2ccc(N3CCNCC3)nc2)c2cc[nH]c2n1 [Compound P-0270] | ≤ 10 | ≤ 10 | – | – | – | – | – | – | IC50 [2]: ≤ 10 µM; IC50 [4]: ≤ 10 µM
2 | c1cc(Nc2ccc(N3CCCCC3)cc2)c2cc[nH]c2n1 [Compound P-0883] | – | ≤ 10 | ≤ 10 | ≤ 10 | ≤ 10 | – | – | – | IC50 [8]: ≤ 10 µM; IC50 [10]: ≤ 10 µM
3 | c1cc2cc(Nc3ccc(N4CCCCC4)cc3)cnc2[nH]1 [Compound P-1016] | – | ≤ 10 | ≤ 10 | – | – | ≤ 10 | ≤ 10 | ≤ 10 | –

The next lines start with results.

Row | IC50 [1] [µM] | IC50 [3] [µM] | IC50 [6] [µM] | IC50 [7] [µM] | IC50 [9] [µM] | IC50 [11] [µM] | IC50 [15] [µM] | IC50 [16] [µM] | SMILES | also measured
4 | ≤ 10 | – | ≤ 10 | – | – | – | – | – | CS(=O)(=O)c1cccc(-c2cnc3[nH]ccc3c2)c1 [Compound P-0173, 5-(3-Methanesulfonyl-phenyl)-1H-pyrrolo[2,3-b]pyridine] | IC50 [5]: ≤ 10 µM
5 | – | – | ≤ 10 | ≤ 10 | ≤ 10 | ≤ 10 | ≤ 10 | ≤ 10 | NC(=O)c1cccc(-c2cnc3[nH]cc(Cc4ccccc4O)c3c2)c1 [Compound P-1385] | IC50 [12]: ≤ 10 µM; IC50 [13]: ≤ 10 µM; IC50 [14]: ≤ 10 µM; IC50 [17]: ≤ 10 µM
6 | – | – | ≤ 10 | – | – | ≤ 10 | – | – | Brc1ccc(Nc2cnc3[nH]ccc3c2)cc1 [Compound P-1067] | –
